# Where “and” joins values, the source holds several entries; their conditions need not be identical. Equal values may be shown once.
# Test system: 966289-007-R4-J1-PDC complex spheroid viability
# Assay: Anticancer human tumor 966289-007-R4-J1-PDC patient-derived pancreatic adenocarcinoma cell line growth inhibition [GQUAD]
# Conditions: for viability, T/C: stronger effect = lower value
# Description: DNA G-quadruplex Stabilizer Agents in Combinations in Complex Spheroids
# A high-throughput screen of multi-cell type tumor spheroids was designed to identify active combinations of DNA G-quadruplex stabilizer agents and targeted small molecules. Complex spheroids include a stromal component modeled by human endothelial cells (HUVEC) and fibroblasts modeled by human mesenchymal stem cells (MSCs). The concentration ranges selected for each drug and investigational agent were based upon clinically achievable concentrations if the clinical Cmax of the agent was known.
# Compounds. The drugs and investigational agents: pidnarulex (CX-5461; NSC782164), APTO-253 (NSC789042), BRACO-19 (NSC847499), peposertib (NSC802822), ceralasertib (NSC780249), elimusertib (NSC800525), camonsertib (NSC841442), AZD-1390 (NSC803789), olaparib (NSC753686), talazoparib (NSC767125), ART-558 (NSC835418), sotorasib (NSC818433), MRTX-1133 (NSC836407), SN-38 (NSC673596), topotecan (NSC609699), etoposide (NSC141540), doxorubicin (NSC123127), gemcitabine (NSC613327), 5-fluorouracil (NSC19893), paclitaxel (NSC125973), vemurafenib (NSC761431), panobinostat (NSC761190), R-306465 (JNJ-16241199; NSC773264), adavosertib (NSC754352), TP-3654 (NSC805149), carboplatin (NSC241240), KSQ-4279 (NSC840948), and staurosporine (NSC755774) were obtained from the National Cancer Institute (NCI) Developmental Therapeutics Program Chemical Repository (34). The FDA-approved anticancer drug set is available from the NCI Developmental Therapeutics Program. […] The stock solutions were prepared in dimethyl sulfoxide (DMSO, Sigma-Aldrich, St. Louis, MO, cat. D2650) at 800-fold the tested concentration and stored at -70 degrees C prior to their use. All drugs and investigational agents were tested over a range starting from a high concentration at or near the clinical Cmax and decreasing in half-log increments. If the clinical Cmax for an agent had not been determined, the highest concentration tested was 10 microM.
# 2.3 Cell Culture. All cells were maintained in an incubator at 37 degrees C and 5% CO2 with 95% humidity. The PDC lines were cultured according to standard operating procedures established by the NCI PDMR. All PDCs were thawed and cultured in Matrigel-coated flasks prepared with a working solution of 1X Ham's F-12 nutrient mix, without supplementation (Invitrogen, cat. 11765054), 100 U/mL penicillin-streptomycin (Invitrogen, cat. 15140122), and 2.5% Matrigel (Corning Inc., cat. 354248) for the first three passages. The 857933-349-R-J2-PDC line was cultured in 6C/Colon 1B media, which includes advanced DMEM/F-12 (Thermo Fisher Scientific, cat. 12634028), 10 mM HEPES (Thermo Fisher Scientific, cat. 15630080), 1X GlutaMAX supplement (Thermo Fisher Scientific, cat. 35050061), 0.1 mg/mL primocin (InvivoGen, cat. ant-pm-2), 10% defined fetal bovine serum, heat inactivated (HyClone Laboratories Inc., cat. SH30070.03HI), 50% L-WRN conditioned media (ATCC, cat. CRL-3276), 1.25 mM N-Acetyl-L-cysteine (Sigma-Aldrich, cat. A9165), 10 mM nicotinamide (Sigma-Aldrich, cat. N0636), 1X B-27 supplement (Thermo Fisher Scientific, cat. 17504044), 1X N-2 supplement (Thermo Fisher Scientific, cat. 17502048), 10 microM Y-27632 dihydrochloride (Tocris Bioscience, cat. 1254), and 50 ng/mL human EGF recombinant protein (Thermo Fisher Scientific, cat. PHG0311). The 485176-168-R4-J1-PDC line was cultured in Panc media, which includes all 6C/Colon 1B media components plus 100 ng/mL human FGF-10 (Thermo Fisher Scientific, cat. 100-26), 500 nM SB-431542 (Selleckchem, cat. S1067), and gastrin (Tocris, cat. 3006).
# […]
# 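Also: spheroids exposed to the agents for seven days before readout.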
# 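For viability, T/C in this document: percent viability relative to DMSO vehicle control wells taken as 100%.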
structure (smiles),measurement,setting,value
Cc1[nH]c2ccc(F)cc2c1-c1nc2c3cccnc3c3ncccc3c2[nH]1,"viability, T/C",compound 0.0316 µM,104% [middle of 11 runs]
same,"viability, T/C",compound 0.1 µM,108% [middle of 11 runs]
same,"viability, T/C",compound 0.316 µM,109% [middle of 11 runs]
same,"viability, T/C",compound 1 µM,109% [middle of 11 runs]
same,"viability, T/C",compound 3.16 µM,106% [middle of 11 runs]
same,"viability, T/C",compound 10 µM,98.2% [middle of 11 runs]
same,IC50,"compound alone, run of 03/18/2024",> 10000 nM
same,IC50,"compound alone, run of 03/26/2024",> 10000 nM
O=c1[nH]cc(F)c(=O)[nH]1,"viability, T/C",compound 0.0316 µM,102% and 98.6% and 93.7%
same,"viability, T/C",compound 0.1 µM,102% and 85.7% and 101%
same,"viability, T/C",compound 0.316 µM,14% and 12.6% and 16.4%
same,"viability, T/C",compound 1 µM,6.4% and 6.04% and 6.66%
same,"viability, T/C",compound 3.16 µM,6.46% and 5.66% and 4.89%
same,"viability, T/C",compound 10 µM,6.43% and 6.71% and 6.08%
same,IC50,curve of compound,197 nM and 176 nM and 196 nM
O=C(NO)c1cnc(N2CCN(S(=O)(=O)c3ccc4ccccc4c3)CC2)nc1,"viability, T/C",compound 0.0316 µM,104% and 97% and 89.4%
same,"viability, T/C",compound 0.1 µM,104% (2×) and 99.9%
same,"viability, T/C",compound 0.316 µM,33.4% and 39% and 70%
same,"viability, T/C",compound 1 µM,7.89% and 9.13% and 14.1%
same,"viability, T/C",compound 3.16 µM,1.55% and 1.2% and 4.88%
same,"viability, T/C",compound 10 µM,0.4% and 0.34% and 0.29%
same,IC50,curve of compound,241 nM and 258 nM and 480 nM
COc1cc(C2c3cc4c(cc3C(OC3OC5COC(C)OC5C(O)C3O)C3COC(=O)C23)OCO4)cc(OC)c1O (stereo not drawn),"viability, T/C",compound 0.0316 µM,106% (2×) and 108%
same,"viability, T/C",compound 0.1 µM,108% and 111% and 110%
same,"viability, T/C",compound 0.316 µM,41.2% and 40.8% and 50.3%
same,"viability, T/C",compound 1 µM,5.14% and 5.7% and 8.75%
same,"viability, T/C",compound 3.16 µM,1.52% and 0.98% and 2.8%
same,"viability, T/C",compound 10 µM,0.83% and 0.61% and 0.86%
same,IC50,curve of compound,271 nM and 320 nM
CC1COCCN1c1cc(-c2ccnn2C)c2ccnc(-c3ccn[nH]3)c2n1 (stereo not drawn) + Cc1cnc(CNC(=O)c2c(=O)c3ccc(N4CCCN(C)CC4)nc3n3c2sc2ccccc23)cn1,IC50,"curve of first compound, second compound 0.0316 µM",< 31.6 nM
same,IC50,"curve of first compound, second compound 0.1 µM",< 31.6 nM
same,IC50,"curve of first compound, second compound 0.316 µM",< 31.6 nM
same,IC50,"curve of first compound, second compound 1 µM",< 31.6 nM
same,IC50,"curve of first compound, second compound 3.16 µM",< 31.6 nM
same,IC50,"curve of first compound, second compound 10 µM",< 31.6 nM
same,"viability, T/C","second compound 0.0316 µM, first compound 0.0316 µM",24.3%
same,"viability, T/C","second compound 0.0316 µM, first compound 0.1 µM",6.05%
same,"viability, T/C","second compound 0.0316 µM, first compound 0.316 µM",4.12%
same,"viability, T/C","second compound 0.0316 µM, first compound 1 µM",4.23%
same,"viability, T/C","second compound 0.0316 µM, first compound 3.16 µM",3.36%
same,"viability, T/C","second compound 0.0316 µM, first compound 10 µM",2.9%
same,"viability, T/C","second compound 0.1 µM, first compound 0.0316 µM",6.63%
same,"viability, T/C","second compound 0.1 µM, first compound 0.1 µM",3.84%
same,"viability, T/C","second compound 0.1 µM, first compound 0.316 µM",4.03%
same,"viability, T/C","second compound 0.1 µM, first compound 1 µM",4.94%
same,"viability, T/C","second compound 0.1 µM, first compound 3.16 µM",3.73%
same,"viability, T/C","second compound 0.1 µM, first compound 10 µM",3.29%
same,"viability, T/C","second compound 0.316 µM, first compound 0.0316 µM",7.42%
same,"viability, T/C","second compound 0.316 µM, first compound 0.1 µM",5.9%
same,"viability, T/C","second compound 0.316 µM, first compound 0.316 µM",5.46%
same,"viability, T/C","second compound 0.316 µM, first compound 1 µM",5.36%
same,"viability, T/C","second compound 0.316 µM, first compound 3.16 µM",3.91%
same,"viability, T/C","second compound 0.316 µM, first compound 10 µM",3.35%
same,"viability, T/C","second compound 1 µM, first compound 0.0316 µM",5.44%
same,"viability, T/C","second compound 1 µM, first compound 0.1 µM",5.41%
same,"viability, T/C","second compound 1 µM, first compound 0.316 µM",6.4%
same,"viability, T/C","second compound 1 µM, first compound 1 µM",6.38%
same,"viability, T/C","second compound 1 µM, first compound 3.16 µM",5.26%
same,"viability, T/C","second compound 1 µM, first compound 10 µM",3.91%
same,"viability, T/C","second compound 3.16 µM, first compound 0.0316 µM",3.88%
same,"viability, T/C","second compound 3.16 µM, first compound 0.1 µM",3.62%
same,"viability, T/C","second compound 3.16 µM, first compound 0.316 µM",4.85%
same,"viability, T/C","second compound 3.16 µM, first compound 1 µM",5.21%
same,"viability, T/C","second compound 3.16 µM, first compound 3.16 µM",6.21%
same,"viability, T/C","second compound 3.16 µM, first compound 10 µM",4.16%
same,"viability, T/C","second compound 10 µM, first compound 0.0316 µM",0.03%
same,"viability, T/C","second compound 10 µM, first compound 0.1 µM",0.07%
same,"viability, T/C","second compound 10 µM, first compound 0.316 µM",0.1%
same,"viability, T/C","second compound 10 µM, first compound 1 µM",0.08%
same,"viability, T/C","second compound 10 µM, first compound 3.16 µM",0.11%
same,"viability, T/C","second compound 10 µM, first compound 10 µM",0.15%
COc1ncnc(C2CC2)c1-c1ncc2cnn(Cc3ccc(-c4nc(C(F)(F)F)cn4C(C)C)cc3)c2n1,"viability, T/C",compound 0.0316 µM,92.2% and 102% and 104%
same,"viability, T/C",compound 0.1 µM,102% and 103% and 100%
same,"viability, T/C",compound 0.316 µM,101% and 102% and 100%
same,"viability, T/C",compound 1 µM,107% and 98% and 97%
same,"viability, T/C",compound 3.16 µM,103% and 106% (2×)
same,"viability, T/C",compound 10 µM,116% and 108% (2×)
same,IC50,curve of compound,> 10000 nM
